Test results taken from PubChem BioAssay (NCI).
Several values for one entry are separate records, joined by “and”; a condition that tells them apart may be missing. Equal entries are not always repeated.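 All cell lines were grown in 96-well plates and treated with compound for 48 hours. GI50 = concentration required for 50% inhibition of growth. TGI: concentration producing complete growth inhibition.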

Columns and labels:
Assay in all cases: NCI-60 cell line screen, 48 h
CCRF-CEM leukemia = test system: CCRF-CEM leukemia
DU-145 prostate = test system: DU-145 prostate
HCT-116 colon = test system: HCT-116 colon
HCT-15 colon = test system: HCT-15 colon
MOLT-4 leukemia = test system: MOLT-4 leukemia
NCI-H522 lung = test system: NCI-H522 lung
OVCAR-5 ovarian = test system: OVCAR-5 ovarian
SK-MEL-28 melanoma = test system: SK-MEL-28 melanoma
TK-10 renal = test system: TK-10 renal
A498 renal = test system: A498 renal

Row | Structure (SMILES) | TGI (CCRF-CEM leukemia) | TGI (DU-145 prostate) | TGI (HCT-116 colon) | TGI (HCT-15 colon) | TGI (MOLT-4 leukemia) | TGI (NCI-H522 lung) | TGI (OVCAR-5 ovarian) | TGI (SK-MEL-28 melanoma) | TGI (TK-10 renal) | TGI (A498 renal) | GI50 (A498 renal) | GI50 (DU-145 prostate) | GI50 (HCT-116 colon) | GI50 (HCT-15 colon) | GI50 (MOLT-4 leukemia) | GI50 (NCI-H522 lung) | GI50 (OVCAR-5 ovarian) | GI50 (SK-MEL-28 melanoma) | GI50 (TK-10 renal)
1 | COc1ccccc1NCC(=O)Nn1c(C)nc2ccc(S(=O)(=O)Nc3ccccc3OC)cc2c1=O | > 100 µM | > 100 µM | > 100 µM | > 100 µM | > 100 µM | > 100 µM | > 100 µM | > 100 µM | > 100 µM | – | – | – | – | – | – | – | – | – | –
2 | C=C1c2nc3ccccc3n2C=C(c2ccc(OC)cc2)N1c1ccc(OCCN2CCOCC2)cc1 | > 86.9 µM | > 100 µM | > 100 µM | > 100 µM | > 100 µM | 3.63 µM | > 100 µM | > 100 µM | > 100 µM | > 100 µM | – | – | – | – | – | – | – | – | –
3 | C#CCCCC(=O)N(C(=O)CS(=O)CC)c1ccccc1 (centres undefined) | > 100 µM | > 100 µM | > 100 µM | > 100 µM | > 100 µM | > 100 µM | > 100 µM | > 100 µM | > 100 µM | – | – | – | – | – | – | – | – | – | –
4 | Cc1nc2c(=O)[nH]c3ccc(Cl)cc3c2o1 | > 100 µM | – | > 100 µM | > 100 µM | > 100 µM | > 100 µM | > 100 µM | – | > 100 µM | > 100 µM | – | – | – | – | – | – | – | – | –
5 | COC(=O)C(Cc1nc2ccccc2[nH]c1=O)C(=O)C(=O)Nc1cc(C(F)(F)F)ccc1Cl (centres undefined) | 48.2 µM | – | 32.1 µM | 26.7 µM | 48.2 µM | 19 µM | 33.5 µM | > 100 µM | 44 µM | > 100 µM | – | – | – | – | – | – | – | – | –
6 | CC(C)N(C(C)C)P(OCCC#N)OC1CC(n2cnc3c(=O)[nH]cnc32)OC1COC(=O)NCCCCCCNC(=O)OC(C)(C)c1ccc(-c2ccccc2)cc1 (centres undefined) | 43.8 µM | – | > 100 µM | > 100 µM | > 100 µM | 32.6 µM | > 100 µM | 57 µM | > 100 µM | > 100 µM | – | – | – | – | – | – | – | – | –
7 | CC1CC[C@@]2(OC1)OC1C[C@H]3[C@@H]4CCC5CC(O)CC[C@]5(C)[C@H]4C/C(=N\N(C)C)[C@]3(C)C1[C@@H]2C (some centres undefined) | > 100 µM | 60.1 µM | 60.3 µM | 60.3 µM | > 100 µM | – | 62.2 µM | > 100 µM | 86.9 µM | 48.6 µM | – | – | – | – | – | – | – | – | –
8 | CC1(C)CC[C@]2(C(=O)O)[C@H](O)C[C@]3(C)C(=CC[C@@H]4[C@@]5(C)CC[C@H](OC6OC(C(=O)O)C(O)C(O)C6O)C(C)(C)[C@@H]5CC[C@]43C)[C@@H]2C1 (some centres undefined) | > 100 µM | > 100 µM | > 100 µM | > 100 µM | > 100 µM | > 100 µM | > 100 µM | 37.1 µM | – | 37.4 µM | – | – | – | – | – | – | – | – | –
9 | CCCCNC(=S)Nc1nc(C(=O)NNC(=O)c2ccccc2)cs1 | > 100 µM | 53.4 µM | 27.1 µM | 26.1 µM | > 100 µM | 43.7 µM | 35 µM | – | 60.6 µM | 79.3 µM | – | – | – | – | – | – | – | – | –
10 | O=C1N[C@@H](COc2ccc(C=Nc3ccc(CCc4ccc(N=Cc5ccc(OC[C@@H]6COC(=O)N6)cc5)cc4)cc3)cc2)CO1 | – | > 100 µM | > 100 µM | > 100 µM | > 100 µM | > 100 µM | > 100 µM | > 100 µM | > 100 µM | > 100 µM | – | – | – | – | – | – | – | – | –
11 | c1ccc(CCn2cncn2)cc1 | > 100 µM | – | > 100 µM | > 100 µM | > 100 µM | > 100 µM | > 100 µM | > 100 µM | > 100 µM | – | – | – | – | – | – | – | – | – | –
12 | O=C(Oc1cccc(Cl)c1)c1cc2cc(CCl)ccc2oc1=O | – | 62.9 µM | > 100 µM | > 100 µM | > 100 µM | 49.5 µM | > 100 µM | > 100 µM | > 100 µM | – | – | – | – | – | – | – | – | – | –
13 | O=C1NC2(C=Cc3c(ccc4ccccc34)O2)Oc2ccccc21 (centres undefined) | 32.1 µM | – | 40.8 µM | 71.2 µM | 30.5 µM | 38.8 µM | > 100 µM | > 100 µM | > 100 µM | – | – | – | – | – | – | – | – | – | –
14 | CN1C(=O)N(C)C2(CCN(CCCCCCF)CC2)C1=O | > 100 µM | > 100 µM | > 100 µM | > 100 µM | – | > 100 µM | > 100 µM | > 100 µM | > 100 µM | – | – | – | – | – | – | – | – | – | –
15 | COc1ccc2[nH]c(O)c(/C=c3/cc4c(c(-c5ccc(F)cc5)n3)=Nc3ccccc3-4)c2c1 | – | 7.96 µM | 3.04 µM | 4.35 µM | 5.21 µM | 5.19 µM | 35.6 µM | 4.58 µM | 5.32 µM | 34.3 µM | 13.2 µM | 2.97 µM | 1.67 µM | 1.91 µM | 1.97 µM | 1.86 µM | 13.8 µM | 1.92 µM | 2.71 µM
16 | CC1(C)c2ccccc2C(O)C12CCC(=O)CC2 (centres undefined) | – | > 100 µM | 23.2 µM | > 100 µM | – | > 100 µM | > 100 µM | > 100 µM | > 100 µM | > 100 µM | – | – | – | – | – | – | – | – | –
17 | O=P1(c2ccccc2)C2=CCC=CC2C(c2ccccc2)N1Cc1ccccc1 (centres undefined) | 34.9 µM | 31.4 µM | 32.2 µM | 28.1 µM | 38.7 µM | 24.6 µM | > 100 µM | – | 35.4 µM | – | – | – | – | – | – | – | – | – | –
18 | COP(C)(=O)C(Cc1c[nH]c2ccccc12)NC(=O)OCc1ccccc1 (centres undefined) | > 100 µM | > 100 µM | > 100 µM | > 100 µM | > 100 µM | – | > 100 µM | > 100 µM | > 100 µM | > 100 µM | – | – | – | – | – | – | – | – | –
19 | CC1(C)CC2C(C1=O)C1(C)CCCC2(C)C1=O (centres undefined) | > 100 µM | > 100 µM | > 100 µM | > 100 µM | > 100 µM | – | > 100 µM | > 100 µM | > 100 µM | – | – | – | – | – | – | – | – | – | –
20 | CCC1(O)CC(OC2CC(N(C)C)C(OC3CC(O)C(OC4CCC(=O)C(C)O4)C(C)O3)C(C)O2)c2c(O)c3c(c(O)c2C1C(=O)OC)C(=O)c1cccc(O)c1C3=O (centres undefined) | 0.0328 µM | 0.124 µM | – | 0.0543 µM and 0.09 µM | – | 0.0549 µM | 0.0735 µM and 0.722 µM | 0.0837 µM and 0.0571 µM | 0.392 µM and 0.211 µM | – | – | – | – | – | – | – | – | – | –
21 | N#C/C(=C\c1ccccc1Br)C(=O)c1ccccc1 | 38.6 µM | – | > 66.8 µM | > 47.2 µM | 52.8 µM | > 100 µM | 99.1 µM | > 59.1 µM | > 100 µM | > 100 µM | – | – | – | – | – | – | – | – | –
22 | CCCCCCCCCCSCC(CO)NC(=O)/C=C/c1c(C)[nH]c(=O)[nH]c1=O (centres undefined) | 3.97 µM and 2.97 µM | – | > 50 µM | > 50 µM | 16.8 µM and 9.45 µM | 1.68 µM and 6.76 µM | > 50 µM | > 50 µM | – | > 50 µM | 1.98 µM and 4.94 µM | – | – | 5.55 µM and 14.7 µM | – | – | – | – | –
